# Test results published in patent US20120190613A1, “ECHINOCANDIN DERIVATIVES” (priority 2009, published 2012).
# Marks after values point to notes of the source that are not given here.
# Legend:
# [1] = system: C. albicans 104 ATCC 90028; test: MIC by broth microdilution against C. albicans; type: cell-based; conditions: 48 hr
# Description: (§1) MIC values (μg/mL) of echinocandin class compounds of the invention against various Candida and Aspergillus species were obtained as follows. Test organisms were obtained from the American Type Culture Collection (Manassas, Va.). The isolates were maintained at −80 ° C., then thawed and sub-cultured one day prior to testing (seven days for Aspergillus strains).
# (§2) The mouse serum was heat-inactivated for 30 minutes at 56° C., and filtered through a 0.2 μm low protein binding filter unit prior to use.
# (§3) MIC values were determined using broth microdilution. The wells of the daughter plates ultimately contained 180 μL of RPMI-1640 medium with and without mouse serum, 10 μL of drug solution, and 10 μL of yeast or fungal inoculum.
# (§4) Prior to susceptibility testing, fungal isolates were removed from frozen storage, thawed at room temperature, and subcultured to Potato Dextrose Agar. The Candida strains were incubated overnight at 35° C. and the Aspergillus strains for 7 days at 25° C. Yeast colonies were inoculated into sterile saline and adjusted to the turbidity of a 0.5 McFarland standard. Inoculums from Aspergillus strains were prepared by washing the surface of an agar slant with 1 mL of sterile saline containing 0.05% of Tween 20. The resulting colloidial suspensions were adjusted to an optical density of 0.09 to 0.11 at λ 625 nm.
# (§5) Both the yeast and filamentous fungus suspensions were further diluted 1:100 in RPMI-1640 medium and dispensed into sterile reservoirs and used to inoculate the daughter plates. 10 μL of standardized inoculum was delivered into each well. This yielded a final cell concentration in the daughter plates of approximately 2.5×10^3 colony-forming units/mL. Plates were incubated at 35° C. for approximately 48 hr.
# (§6) Following incubation, microplates were viewed from the bottom using a plate viewer.
# [2] = system: C. parapsilosis 630 ATCC 90018; test: MIC by broth microdilution against C. parapsilosis; type: cell-based; conditions: 48 hr
# Description: as §1, §2, §3, §4, §5, §6
# [3] = system: A. flavus 626 ATCC 64025; test: MIC by broth microdilution against A. flavus; type: cell-based; conditions: 48 hr, growth reduction of 50%
# Description: as §1, §2, §3, §4, §5, §6
# [4] = system: C. albicans R303; test: Mouse candidiasis infection model, C. albicans density in kidneys; type: in vivo, female CD-1 mice; conditions: First run; for Difference from 24-hr control / Mean log10 CFU/kidneys (±SD): kidneys at 24 hr; for Mean log10 CFU/kidneys (±SD): neutropenic mice
# Description: The objective of these studies was to evaluate the efficacy of test compounds in the mouse candidiasis infection model.
# The strain, C. albicans R303 was transferred from frozen storage onto Sabauroud dextrose agar (SDA) plates and grown for ˜24 hr at 35° C. The inoculum was prepared by transferring colonies from the plate to phosphate buffered saline (PBS) and the concentration adjusted to 10^6 CFU/mL with the aid of a spectrophotometer. The stock was diluted 1:9 to prepare the inoculum. Prior to each run the concentration was verified using the dilution plate count method.
# The female CD-1 mice used in this study were obtained from Charles River Laboratories, Portage, MI. The animals were approximately seven-weeks-old at the start of the study and weighed about 16-26 g.
# In one approach, mice were made neutropenic with IP injections of cyclophosphamide (150 mg/kg in 10 mL/kg) at 4 and 1 day before inoculation. Each animal was inoculated with the appropriate concentration by injecting 0.1 mL of inoculum into a tail vein. The test compounds were administered IP at 2 hr after infection.
# The kidneys were collected from four mice in control group 1 (untreated) at 2 hr after infection, and from the remaining mice in the study at 24 hr after infection. Kidneys were removed aseptically from each mouse and were combined in a sterile tube. An aliquot (2 mL) of sterile PBS was added to each tube and the contents homogenized with a tissue homogenizer (Polytron 3100). Serial dilutions of the tissue homogenates were conducted and 0.1 mL aliquots were spread on SDA plates and the plates incubated at 35° C. overnight. The CFU/kidneys were determined from colony counts. Data were analyzed using one-way ANOVA with the Tukey-Kramer Multiple Comparisons Test (GraphPad InStat version 3.06, GraphPad Software, San Diego, Calif.).
# Treatments were administered at 2 hr after infection with 2.1×10^5 CFU/mL of the organism. Data are the means of four mice.
# Treatments were administered at 2 hr after infection with 6.4×10^5 CFU/mL of the organism. Data are the means of four mice.
# Treatments were administered at 2 hr after infection with 3.8×10^5 CFU/mL of the organism. Data are the means of four mice.
# Treatments were administered at 2 hr after infection with 3.8×10^5 CFU/rnL of the organism. Data are the means of four mice.
# [5] = 1 mg/kg IP 2 hr after infection
# [6] = 5 mg/kg IP 2 hr after infection
SMILES,MIC ([1]; 0% mouse serum) [µg/mL],MIC ([1]; 50% mouse serum) [µg/mL],MIC ([2]; 0% mouse serum) [µg/mL],MIC ([2]; 50% mouse serum) [µg/mL],MIC ([3]; 50% mouse serum) [µg/mL],"Difference from 24-hr control [4, 5] [ns log10 CFU/kidneys]","Mean log10 CFU/kidneys (±SD) [4, 5] [log10 CFU/kidneys]","Difference from 24-hr control [4, 6]","Mean log10 CFU/kidneys (±SD) [4, 6] [log10 CFU/kidneys]",MIC ([3]; 0% mouse serum) [µg/mL],"Reduction of yeast density in kidneys ([4]; 5 mg/kg dose, versus 24-hr infected control) [logs]"
CCC(C)CC(C)CCCCCCCCC(=O)NC1CC(O)C(NCCNC(=O)OCCOC)NC(=O)C2C(O)CCN2C(=O)C(C(O)CCNC(=O)OCCOC)NC(=O)C(C(O)C(O)c2ccc(O)cc2)NC(=O)C2CC(O)CN2C(=O)C(C(C)O)NC1=O (stereo not drawn) [Compound 2],4,>16,16,>16,4,0.33,5.10 ± 0.28,0.37 ns log10 CFU/kidneys,5.14 ± 0.25,–,–
CCC(C)CC(C)CCCCCCCCC(=O)NC1CC(O)C(NCCNC(=O)CCCCCCCOCCOCCOCCOCCOCCOCCOCCOC)NC(=O)C2C(O)CCN2C(=O)C(C(O)CCNC(=O)CCCCCCCOCCOCCOCCOCCOCCOCCOCCOC)NC(=O)C(C(O)C(O)c2ccc(O)cc2)NC(=O)C2CC(O)CN2C(=O)C(C(C)O)NC1=O (stereo not drawn) [Compound 4],8,>16,>16,>16,–,0.48,5.25 ± 0.09,0.60 ns log10 CFU/kidneys,5.37 ± 0.11,16,–
CCCCCOc1ccc(-c2ccc(-c3ccc(C(=O)NC4CC(O)C(OCCOCCOCCOCCOC)NC(=O)C5C(O)C(C)CN5C(=O)C(C(C)O)NC(=O)C(C(O)C(O)c5ccc(O)cc5)NC(=O)C5CC(O)CN5C(=O)C(C(C)O)NC4=O)cc3)cc2)cc1 (stereo not drawn) [Compound 5],2,2,>16,>16,0.5,0.00,4.77 ± 0.06,−1.76*** log10 CFU/kidneys,3.01 ± 0.41,0.125,1.76
CCCCCOc1ccc(-c2ccc(-c3ccc(C(=O)NC4CC(O)C(OCCCCCCOCCOCCOCCOCCOCCOCCOCCOC)NC(=O)C5C(O)C(C)CN5C(=O)C(C(C)O)NC(=O)C(C(O)C(O)c5ccc(O)cc5)NC(=O)C5CC(O)CN5C(=O)C(C(C)O)NC4=O)cc3)cc2)cc1 (stereo not drawn) [Compound 7],2,>16,>16,>16,2,0.50,5.27 ± 0.17,0.31 ns log10 CFU/kidneys,5.08 ± 0.19,0.25,–
